Results published in the NIST ThermoML archive (doi:10.1016/j.fluid.2014.10.043).
Numbers after ± are expanded uncertainties.

What was measured:
[1] = 293.2 K; 101.33 kPa; Liquid; Vibrating tube method
[2] = refractive index (Na D-line) (dimensionless); settings: 293.2 K; 101.33 kPa; Liquid; Standard Abbe refractometry

SMILES | mass density [1] [kg/m3] | refractive index [2]
CCCCCCCCC(=O)OCC [ethyl nonanoate] | 866.3 ± 0.72 | 1.4226 ± 0.0006
CCCCC(=O)OCC [ethyl pentanoate] | 877.15 ± 0.36 | 1.4125 ± 0.0005
CC(=O)c1ccccc1 [acetophenone] | 1027.9 ± 0.93 | 1.5361 ± 0.0006
CCCCN(CCCC)CCCC [tributylamine] | 782.3 ± 0.61 | 1.4275 ± 0.0006
CCOC(=O)CC(=O)OCC [diethyl 1,3-propanedioate] | 1055.25 ± 0.98 | 1.4135 ± 0.0006
CCCCCCCCO [octan-1-ol] | 825.95 ± 0.35 | 1.428 ± 0.0005
CCCC(=O)OCC [ethyl butanoate] | 879.18 ± 0.73 | 1.3918 ± 0.0006
CCCC(=O)O [butanoic acid] | 957.8 ± 0.37 | 1.3965 ± 0.0005
